Measurements as given in US10106553B2, “Substituted benzothiophenyl derivatives as GPR40 agonists for the treatment of type II diabetes” (Janssen Pharmaceutica NV, priority 2016, dated 2018).

Molecular target: human GPR40 (Homo sapiens (Human), UniProt O14842)
Assay: GPR40 Calcium Flux Assay;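 also: calcium flux followed with the Fluo-8 fluorescent dye, intensity read each second over 8 min as compounds were added to the cells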
Assay type: cell-based
Details: transfected HEK293 cells stably expressing human GPR40; Ca2+ mobilization; mean data; read-out: hGPR40 Ca^2+ Assay EC50

Chain of human GPR40 (O14842 whole entry): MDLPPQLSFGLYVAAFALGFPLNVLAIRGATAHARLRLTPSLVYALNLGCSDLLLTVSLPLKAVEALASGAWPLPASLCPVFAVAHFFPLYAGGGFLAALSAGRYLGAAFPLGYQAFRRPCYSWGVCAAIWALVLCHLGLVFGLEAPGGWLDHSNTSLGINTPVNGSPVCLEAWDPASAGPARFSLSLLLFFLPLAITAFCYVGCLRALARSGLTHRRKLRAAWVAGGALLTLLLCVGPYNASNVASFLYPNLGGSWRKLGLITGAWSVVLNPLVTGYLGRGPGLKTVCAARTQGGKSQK

SMILES | EC50
CC#C[C@@H](Cc1nnn[nH]1)c1ccc(OCc2ccc3scc(-c4ccccc4Br)c3c2)cc1 [Cpd 4, (2S)-5-(2-(4-((3-(2-Bromophenyl)benzo[b]thiophen-5-yl)methoxy)phenyl)pent-3-yn-1-yl)-1H-tetrazole] | 0.02 µM
CC#C[C@@H](Cc1nnn[nH]1)c1ccc(OCc2ccc3scc(-c4cc(Cl)ncc4C)c3c2)cc1 [Cpd 5, (2S)-4-(5-((4-(1-(1H-Tetrazol-5-yl)pent-3-yn-2-yl)phenoxy)methyl)benzo[b]thiophen-3-yl)-2-chloro-5-methylpyridine] | 0.065 µM
CC#C[C@@H](Cc1nnn[nH]1)c1ccc(OCc2ccc3scc(-c4ccc(OCC5(O)CCS(=O)(=O)CC5)cc4C)c3c2)cc1 [Cpd 6, (2S)-4-((4-(5-((4-(1-(1H-Tetrazol-5-yl)pent-3-yn-2-yl)phenoxy)methyl)benzo[b]thiophen-3-yl)-3-methylphenoxy)methyl)-4-hydroxytetrahydro-2H-thiopyran 1,1-dioxide] | 0.19 µM
CC#C[C@@H](Cc1nnn[nH]1)c1ccc(OCc2ccc3scc(-c4ccc(OC5CCOCC5)cc4C)c3c2)cc1 [Cpd 9, (2S)-5-(2-(4-((3-(2-Methyl-4-((tetrahydro-2H-pyran-4-yl)oxy)phenyl)benzo[b]thiophen-5-yl)methoxy)phenyl)pent-3-yn-1-yl)-1H-tetrazole] | 0.27 µM
CC#C[C@@H](Cc1nnn[nH]1)c1ccc(OCc2ccc3scc(-c4ccc(S(C)(=O)=O)cc4C)c3c2)cc1 [Cpd 14, (2S)-5-(2-(4-((3-(2-Methyl-4-(methylsulfonyl)phenyl)benzo[b]thiophen-5-yl)methoxy)phenyl)pent-3-yn-1-yl)-1H-tetrazole] | 0.13 µM
CC#C[C@@H](Cc1nnn[nH]1)c1ccc(OCc2ccc3scc(-c4ccc(C5CCS(=O)(=O)CC5)cc4C)c3c2)cc1 [Cpd 17, (2S)-4-(4-(5-((4-(1-(1H-Tetrazol-5-yl)pent-3-yn-2-yl)phenoxy)methyl)benzo[b]thiophen-3-yl)-3-methylphenyl)tetrahydro-2H-thiopyran 1,1-dioxide] | 0.097 µM
CC#C[C@@H](Cc1nnn[nH]1)c1ccc(OCc2ccc3sc(C)c(-c4ccc(OC5CCS(=O)(=O)CC5)cc4C)c3c2)cc1 [Cpd 18, 4-(4-(5-((4-((2S)-1-(1H-Tetrazol-5-yl)pent-3-yn-2-yl)phenoxy)methyl)-2-methylbenzo[b]thiophen-3-yl)-3-methylphenoxy)tetrahydro-2H-thiopyran 1,1-dioxide] | 0.08 µM
CC#C[C@@H](Cc1nnn[nH]1)c1ccc(OCc2ccc3scc(-c4c(C)cccc4C)c3c2)cc1 [Cpd 20, (2S)-5-(2-(4-((3-(2,6-Dimethylphenyl)benzo[b]thiophen-5-yl)methoxy)phenyl)pent-3-yn-1-yl)-1H-tetrazole] | 0.024 µM
CC#C[C@@H](Cc1nnn[nH]1)c1ccc(OCc2ccc3scc(-c4cnc(OCCOC)cc4C)c3c2)cc1 [Cpd 21, (2S)-5-(5-((4-(1-(1H-Tetrazol-5-yl)pent-3-yn-2-yl)phenoxy)methyl)benzo[b]thiophen-3-yl)-2-(2-methoxyethoxy)-4-methylpyridine] | 0.051 µM
CC#C[C@@H](Cc1nnn[nH]1)c1ccc(OCc2ccc3scc(-c4ncnn4C)c3c2)cc1 [Cpd 23, (2S)-5-(2-(4-((3-(1-Methyl-1H-1,2,4-triazol-5-yl)benzo[b]thiophen-5-yl)methoxy)phenyl)pent-3-yn-1-yl)-1H-tetrazole] | 1.74 µM
CC#C[C@@H](Cc1nnn[nH]1)c1ccc(OCc2ccc3scc(-c4nccnc4C)c3c2)cc1 [Cpd 24, (2S)-2-(5-((4-(1-(1H-Tetrazol-5-yl)pent-3-yn-2-yl)phenoxy)methyl)benzo[b]thiophen-3-yl)-3-methylpyrazine] | 0.55 µM
CC#C[C@@H](Cc1nnn[nH]1)c1ccc(OCc2ccc3scc(-c4ncc(OCCOC)cc4C)c3c2)cc1 [Cpd 26, (2S)-2-(5-((4-(1-(1H-Tetrazol-5-yl)pent-3-yn-2-yl)phenoxy)methyl)benzo[b]thiophen-3-yl)-5-(2-methoxyethoxy)-3-methylpyridine] | 0.034 µM
CC#C[C@@H](Cc1nnn[nH]1)c1ccc(OCc2ccc3scc(-c4cccc5c4OCCO5)c3c2)cc1 [Cpd 27, (2S)-5-(2-(4-((3-(2,3-Dihydrobenzo[b][1,4]dioxin-5-yl)benzo[b]thiophen-5-yl)methoxy)phenyl)pent-3-yn-1-yl)-1H-tetrazole] | 0.061 µM
CC#C[C@@H](Cc1nnn[nH]1)c1ccc(OCc2ccc3scc(-c4cccc5c4CCN5C(=O)CC)c3c2)cc1 [Cpd 28, (2S)-1-(4-(5-((4-(1-(1H-tetrazol-5-yl)pent-3-yn-2-yl)phenoxy)methyl)benzo[b]thiophen-3-yl)indolin-1-yl)propan-1-one] | 0.027 µM
CC#C[C@@H](Cc1nnn[nH]1)c1ccc(OCc2ccc3scc(-c4cc(NS(C)(=O)=O)ccc4C)c3c2)cc1 [Cpd 29, (2S)—N-(3-(5-((4-(1-(1H-tetrazol-5-yl)pent-3-yn-2-yl)phenoxy)methyl)benzo[b]thiophen-3-yl)-4-methylphenyl)methanesulfonamide] | 0.42 µM
CC#C[C@@H](Cc1nnn[nH]1)c1ccc(OCc2ccc3scc(-c4cccc5c4CCC(C)(C)O5)c3c2)cc1 [Cpd 30, (2S)-5-(2-(4-((3-(2,2-Dimethylchroman-5-yl)benzo[b]thiophen-5-yl)methoxy)phenyl)pent-3-yn-1-yl)-1H-tetrazole] | 0.43 µM

SMILES | EC50
CC#C[C@@H](Cc1nnn[nH]1)c1ccc(OCc2ccc3scc(-c4ccccc4Cl)c3c2)cc1 [Cpd 32, (2S)-5-(2-(4-((3-(2-Chlorophenyl)benzo[b]thiophen-5-yl)methoxy)phenyl)pent-3-yn-1-yl)-1H-tetrazole] | 0.011 µM
CC#C[C@@H](Cc1nnn[nH]1)c1ccc(OCc2ccc3scc(-c4cc(OCCOC)cnc4C)c3c2)cc1 [Cpd 33, (2S)-3-(5-((4-(1-(1H-Tetrazol-5-yl)pent-3-yn-2-yl)phenoxy)methyl)benzo[b]thiophen-3-yl)-5-(2-methoxyethoxy)-2-methylpyridine] | 0.008 µM
CC#C[C@@H](Cc1nnn[nH]1)c1ccc(OCc2ccc3sc(C(F)(F)F)c(C4CC4)c3c2)cc1 [Cpd 37, (2S)-5-(2-(4-((3-Cyclopropyl-2-(trifluoromethyl)benzo[b]thiophen-5-yl)methoxy)phenyl)pent-3-yn-1-yl)-1H-tetrazole] | 0.59 µM
CC#C[C@@H](Cc1nnn[nH]1)c1ccc(OCc2ccc3scc(-c4ccccc4C)c3c2)nc1 [Cpd 40, (2R)-5-(1-(1H-Tetrazol-5-yl)pent-3-yn-2-yl)-2-((3-(2-methylphenyl)benzo[b]thiophen-5-yl)methoxy)pyridine] | 0.058 µM
CC#C[C@@H](Cc1nnn[nH]1)c1ccc(OCc2ccc3scc(-c4ccc(OCCOC)cc4C)c3c2)nc1 [Cpd 41, (2R)-5-(1-(1H-Tetrazol-5-yl)pent-3-yn-2-yl)-2-((3-(4-(2-methoxyethoxy)-2-methylphenyl)benzo[b]thiophen-5-yl)methoxy)pyridine] | 0.019 µM
CC#C[C@@H](Cc1nnn[nH]1)c1ccc(OCc2ccc3scc(-c4cccc(OCCOC)c4C)c3c2)nc1 [Cpd 42, (2R)-5-(1-(1H-Tetrazol-5-yl)pent-3-yn-2-yl)-2-((3-(3-(2-methoxyethoxy)-2-methylphenyl)benzo[b]thiophen-5-yl)methoxy)pyridine] | 0.12 µM
CC#C[C@@H](Cc1nnn[nH]1)c1ccc(OCc2ccc3scc(-c4ccc(OCCC(C)(C)O)cc4C)c3c2)nc1 [Cpd 43, (2R)-4-(4-(5-(((5-(1-(1H-Tetrazol-5-yl)pent-3-yn-2-yl)pyridin-2-yl)oxy)methyl)-benzo[b]thiophen-3-yl)-3-methylphenoxy)-2-methylbutan-2-ol] | 0.13 µM
CC#C[C@@H](Cc1nnn[nH]1)c1ccc(OCc2cnc3scc(-c4ccccc4C)c3c2)cc1 [Cpd 49, (2S)-5-((4-(1-(1H-Tetrazol-5-yl)pent-3-yn-2-yl)phenoxy)methyl)-3-(2-methylphenyl)thieno[2,3-b]pyridine] | 0.01 µM
CC#C[C@@H](Cc1nnn[nH]1)c1ccc(OCc2cnc3scc(-c4ccc(OC)cc4C)c3c2)cc1 [Cpd 50, (2S)-5-((4-(1-(1H-Tetrazol-5-yl)pent-3-yn-2-yl)phenoxy)methyl)-3-(4-methoxy-2-methylphenyl)thieno[2,3-b]pyridine] | 0.052 µM
CC#C[C@@H](Cc1nnn[nH]1)c1ccc(OCc2cc3c(-c4ccccc4C)csc3cn2)cc1 [Cpd 51, (2S)-5-((4-(1-(1H-Tetrazol-5-yl)pent-3-yn-2-yl)phenoxy)methyl)-3-(2-methylphenyl)thieno[2,3-c]pyridine] | 0.003 µM
CC#C[C@@H](Cc1nnn[nH]1)c1ccc(OCc2cc3c(-c4ccc(OC)cc4C)csc3cn2)cc1 [Cpd 52, (2S)-5-((4-(1-(1H-Tetrazol-5-yl)pent-3-yn-2-yl)phenoxy)methyl)-3-(4-methoxy-2-methylphenyl)thieno[2,3-c]pyridine] | 0.001 µM
CC#C[C@@H](Cc1nnn[nH]1)c1ccc(OCc2ccc3scc(-c4ccccc4C)c3n2)cc1 [Cpd 53, (2S)-5-((4-(1-(1H-Tetrazol-5-yl)pent-3-yn-2-yl)phenoxy)methyl)-3-(2-methylphenyl)thieno[3,2-b]pyridine] | 0.17 µM
CC#C[C@@H](Cc1nnn[nH]1)c1ccc(OCc2ccc3scc(-c4ccc(OC)cc4C)c3n2)cc1 [Cpd 54, (2S)-5-((4-(1-(1H-Tetrazol-5-yl)pent-3-yn-2-yl)phenoxy)methyl)-3-(4-methoxy-2-methylphenyl)thieno[3,2-b]pyridine] | 0.18 µM
CC#C[C@@H](Cc1nnn[nH]1)c1ccc(OCc2ccc3scc(C4CCCC4)c3c2)cc1 [Cpd 56, (2S)-5-(2-(4-((3-Cyclopentylbenzo[b]thiophen-5-yl)methoxy)phenyl)pent-3-yn-1-yl)-1H-tetrazole] | 0.054 µM
CC#C[C@@H](Cc1nnn[nH]1)c1ccc(OCc2ccc3scc(C(C)C)c3c2)cc1 [Cpd 58, (2S)-5-(2-(4-((3-Isopropylbenzo[b]thiophen-5-yl)methoxy)phenyl)pent-3-yn-1-yl)-1H-tetrazole] | 0.1 µM
CC#C[C@@H](Cc1nnn[nH]1)c1ccc(OCc2ccc3scc(CCC)c3c2)cc1 [Cpd 59, (2S)-5-(2-(4-((3-Propylbenzo[b]thiophen-5-yl)methoxy)phenyl)pent-3-yn-1-yl)-1H-tetrazole] | 0.13 µM
